# Reference: paper PMC8092876, “A Leucyl-tRNA Synthetase Inhibitor with Broad-Spectrum Antimycobacterial Activity” (Antimicrobial Agents and Chemotherapy, 2021)
# Tested on: M. abscessus Bamboo
# Format: cell-based
# Details: M. abscessus versus M. tuberculosis
compound,measurement,value
CC(C)(O)COc1ccc(Br)c2c1B(O)O[C@@H]2CN [EC/11770],frequency of resistance lower than for other benzoxaboroles in M. tuberculosis,100 fold
